Source: patent publication US10072026B2, “Crystalline form of 3-((1R,3s,5S)-3-((7-((5-methyl-1H-pyrazol-3-yl)amino)-1,6-naphthyridin-5-yl)amino)-8-azabicyclo[3.2.1]octan-8-yl)propanenitrile” (priority 2015, dated 2018)

Assays:
[1] = tested on: IL-4 induced STAT6 phosphorylation in THP-1 human monocytic cells; experiment: Cellular JAK potency assay, THP-1
JAK1 = JAK1 (Homo sapiens (Human), UniProt P23458); experiment: LanthaScreen JAK biochemical assay (JAK1)
[2] = IL-4 induced STAT6 phosphorylation, THP-1 cells
[3] = Homo sapiens, THP-1, read-out: THP-1 IL4 pIC50 (converted)
[4] = THP-1 cells, IL-4 induced STAT6 phosphorylation

Sequence of JAK1 (P23458 whole entry): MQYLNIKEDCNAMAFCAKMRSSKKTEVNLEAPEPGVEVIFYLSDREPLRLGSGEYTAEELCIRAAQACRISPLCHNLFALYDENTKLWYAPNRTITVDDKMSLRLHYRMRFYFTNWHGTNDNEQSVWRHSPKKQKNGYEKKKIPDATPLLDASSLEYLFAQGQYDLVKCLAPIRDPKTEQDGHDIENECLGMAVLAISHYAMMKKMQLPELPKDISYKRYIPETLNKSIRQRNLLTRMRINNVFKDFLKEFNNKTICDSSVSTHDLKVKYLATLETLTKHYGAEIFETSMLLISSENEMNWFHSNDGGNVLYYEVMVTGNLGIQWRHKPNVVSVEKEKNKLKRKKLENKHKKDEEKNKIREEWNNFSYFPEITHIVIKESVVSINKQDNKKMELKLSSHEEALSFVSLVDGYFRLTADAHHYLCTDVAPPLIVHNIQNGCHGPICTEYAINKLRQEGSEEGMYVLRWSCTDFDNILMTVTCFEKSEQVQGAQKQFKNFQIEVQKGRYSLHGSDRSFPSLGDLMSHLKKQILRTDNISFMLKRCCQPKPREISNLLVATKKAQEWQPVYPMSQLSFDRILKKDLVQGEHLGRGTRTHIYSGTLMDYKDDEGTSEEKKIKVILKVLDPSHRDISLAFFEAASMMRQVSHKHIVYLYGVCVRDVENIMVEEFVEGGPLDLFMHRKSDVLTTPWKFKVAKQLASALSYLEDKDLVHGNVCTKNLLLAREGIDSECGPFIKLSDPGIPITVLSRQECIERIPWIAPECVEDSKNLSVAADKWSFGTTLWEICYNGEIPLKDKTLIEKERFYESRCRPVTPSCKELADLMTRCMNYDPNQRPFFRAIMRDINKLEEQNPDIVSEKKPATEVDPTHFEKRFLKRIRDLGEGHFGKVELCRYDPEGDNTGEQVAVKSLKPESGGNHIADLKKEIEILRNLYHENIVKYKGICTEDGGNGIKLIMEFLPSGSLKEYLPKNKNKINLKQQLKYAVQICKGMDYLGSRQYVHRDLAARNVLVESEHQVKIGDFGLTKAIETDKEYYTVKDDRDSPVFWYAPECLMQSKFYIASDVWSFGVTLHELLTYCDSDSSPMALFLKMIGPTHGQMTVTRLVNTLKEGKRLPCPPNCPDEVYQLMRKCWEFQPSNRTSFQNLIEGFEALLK

For COC(=O)CN1[C@@H]2CC[C@H]1C[C@H](Nc1nc(Nc3cc(C)[nH]n3)cc3ncccc13)C2 [Example 1-1], the “THP-1 IL4 pIC50” value [1, 2] was “C (C represents a pEC50 value<6.7 (EC50>200 nM))”.

For COC(=O)CCN1[C@@H]2CC[C@H]1C[C@H](Nc1nc(Nc3cc(C)[nH]n3)cc3ncccc13)C2 [Example 1-2], the “THP-1 IL4 pIC50” value [1, 2] was “C (C represents a pEC50 value<6.7 (EC50>200 nM))”.

In the case of COC(=O)CCCN1[C@@H]2CC[C@H]1C[C@H](Nc1nc(Nc3cc(C)[nH]n3)cc3ncccc13)C2 [Example 1-3], the “THP-1 IL4 pIC50” value [1, 2] is reported as “C (C represents a pEC50 value<6.7 (EC50>200 nM))”.

For Cc1cc(Nc2cc3ncccc3c(N[C@@H]3C[C@H]4CC[C@@H](C3)N4CCCF)n2)n[nH]1 [Example 1-9], the “JAK 1 (pKi)” value (JAK1) was “B (B represents a pKi value between 9 and 10 (Ki between 1 nM and 0.1 nM))” and the “THP-1 IL4 pIC50” value [1, 2] was “C (C represents a pEC50 value<6.7 (EC50>200 nM))”.

With Cc1cc(Nc2cc3ncccc3c(N[C@@H]3C[C@H]4CC[C@@H](C3)N4CC(=O)N[C@@H]3CCOC3=O)n2)n[nH]1 [Example 1-11] the “THP-1 IL4 pIC50” value [1, 2] was “C (C represents a pEC50 value<6.7 (EC50>200 nM))”.

In the case of Cc1cc(Nc2cc3ncccc3c(N[C@@H]3C[C@H]4CC[C@@H](C3)N4CC(=O)N[C@H]3CCOC3=O)n2)n[nH]1 [Example 1-12], the “THP-1 IL4 pIC50” value [1, 2] is reported as “C (C represents a pEC50 value<6.7 (EC50>200 nM))”.

For Cc1cc(Nc2cc3ncccc3c(N[C@@H]3C[C@H]4CC[C@@H](C3)N4CC(C)C)n2)n[nH]1 [Example 1-13], the “JAK 1 (pKi)” value (JAK1) was “B (B represents a pKi value between 9 and 10 (Ki between 1 nM and 0.1 nM))” and the “THP-1 IL4 pIC50” value [1, 2] was “A (A represents a pEC50 value≥7.5 (EC50≤32 nM))”.

Cc1cc(Nc2cc3ncccc3c(N[C@@H]3C[C@H]4CC[C@@H](C3)N4Cc3cccc(O)c3)n2)n[nH]1 [Example 1-19] was tested, and the IC50 [1, 3] was 31.6 to 200 nM.

Cc1cc(Nc2cc3ncccc3c(N[C@@H]3C[C@H]4CC[C@@H](C3)N4CC3CCC(=O)O3)n2)n[nH]1 (some centres unmarked) [Example 1-29] was tested, and the “THP-1 IL4 pIC50” value [1, 2] was “C (C represents a pEC50 value<6.7 (EC50>200 nM))”.

Work on Cc1cc(Nc2cc3ncccc3c(N[C@@H]3C[C@H]4CC[C@@H](C3)N4CC3COC(=O)O3)n2)n[nH]1 (some centres unmarked) [Example 1-30] yielded an IC50 [1, 3] of 31.6 to 200 nM.

For Cc1cc(Nc2cc3ncccc3c(N[C@@H]3C[C@H]4CCC[C@@H](C3)N4CC(=O)OC(C)C)n2)n[nH]1 [Example 1-35], the “THP-1 IL4 pIC50” value [1, 2] was “A (A represents a pEC50 value≥7.5 (EC50≤32 nM))”.

For Cc1cc(Nc2cc3ncccc3c(N[C@@H]3C[C@H]4CCC[C@@H](C3)N4CC(F)(F)F)n2)n[nH]1 [Example 1-45], the “THP-1 IL4 pIC50” value [1, 2] was “B (B represents a pEC50 value between 6.7 and 7.5 (EC50 between 200 nM and 32 nM))”.

In the case of Cc1cc(Nc2cc3ncccc3c(N[C@@H]3C[C@H]4CCC[C@@H](C3)N4Cc3cccc(O)c3)n2)n[nH]1 [Example 1-49], the “THP-1 IL4 pIC50” value [1, 2] is reported as “A (A represents a pEC50 value≥7.5 (EC50≤32 nM))”.

Cc1cc(Nc2cc3ncccc3c(N[C@@H]3C[C@H]4CCC[C@@H](C3)N4[C@H]3CCOC3=O)n2)n[nH]1 [Example 1-51] was tested, and the “THP-1 IL4 pIC50” value [1, 2] was “B (B represents a pEC50 value between 6.7 and 7.5 (EC50 between 200 nM and 32 nM))”.

With Cc1cc(Nc2cc3ncccc3c(N[C@@H]3C[C@H]4CCC[C@@H](C3)N4[C@@H]3CCOC3=O)n2)n[nH]1 [Example 1-52] the “THP-1 IL4 pIC50” value [1, 2] was “B (B represents a pEC50 value between 6.7 and 7.5 (EC50 between 200 nM and 32 nM))”.

CCOCC(=O)N1[C@@H]2CC[C@H]1C[C@H](Nc1nc(Nc3cc(C)[nH]n3)cc3ncccc13)C2 [Example 2-4] was tested, and the “THP-1 IL4 pIC50” value [1, 2] was “C (C represents a pEC50 value<6.7 (EC50>200 nM))”.

With COC(=O)C1(C(=O)N2[C@@H]3CC[C@H]2C[C@H](Nc2nc(Nc4cc(C)[nH]n4)cc4ncccc24)C3)CC1 [Example 2-9] the IC50 [1, 3] was greater than 200 nM.

Cc1cc(Nc2cc3ncccc3c(N[C@@H]3C[C@H]4CC[C@@H](C3)N4S(=O)(=O)c3ccccn3)n2)n[nH]1 [Example 4-14] was tested, and the IC50 [1, 3] was 31.6 to 200 nM.

With Cc1cc(Nc2cc3ncccc3c(N[C@@H]3C[C@H]4CCC[C@@H](C3)N4S(C)(=O)=O)n2)n[nH]1 [Example 4-16] the “THP-1 IL4 pIC50” value [1, 2] was “A (A represents a pEC50 value≥7.5 (EC50≤32 nM))”.

For C=CCS(=O)(=O)N1[C@@H]2CCC[C@H]1C[C@H](Nc1nc(Nc3cc(C)[nH]n3)cc3ncccc13)C2 [Example 4-22], the “THP-1 IL4 pIC50” value [1, 2] was “A (A represents a pEC50 value≥7.5 (EC50≤32 nM))”.

Compound Cc1cc(Nc2cc3nc(CN4CCOCC4)ccc3c(N[C@@H]3C[C@H]4CC[C@@H](C3)N4S(C)(=O)=O)n2)n[nH]1 [Example 5-15] has an IC50 [1, 3] of 31.6 to 200 nM.

In the case of COCCS(=O)(=O)N1[C@@H]2CCC[C@H]1C[C@H](Nc1nc(Nc3cc(C)[nH]n3)cc3nc(CN4CCOCC4)ccc13)C2 [Example 5-24], the “THP-1 IL4 pIC50” value [1, 2] is reported as “B (B represents a pEC50 value between 6.7 and 7.5 (EC50 between 200 nM and 32 nM))”.

With C=CCOC(=O)N1[C@@H]2CCC[C@H]1C[C@H](Nc1nc(Nc3cc(C)[nH]n3)cc3nc(CN4CCOCC4)ccc13)C2 [Example 5-25] the “THP-1 IL4 pIC50” value [1, 2] was “B (B represents a pEC50 value between 6.7 and 7.5 (EC50 between 200 nM and 32 nM))”.

Cc1cc(Nc2cc3nc(CN4CCOCC4)ccc3c(N[C@@H]3C[C@H]4CCC[C@@H](C3)N4S(=O)(=O)N3CCC3)n2)n[nH]1 [Example 5-28] was tested, and the “THP-1 IL4 pIC50” value [1, 2] was “B (B represents a pEC50 value between 6.7 and 7.5 (EC50 between 200 nM and 32 nM))”.

CCC1(S(=O)(=O)N2[C@@H]3CC[C@H]2C[C@H](Nc2nc(Nc4cc(C)[nH]n4)cc4nc(CN5CCC(F)(F)CC5)ccc24)C3)CC1 [Example 5-32] gave an IC50 [1, 3] of 31.6 to 200 nM.

Cc1cc(Nc2cc3nc(CN4CCC(F)(F)CC4)ccc3c(N[C@@H]3C[C@H]4CC[C@@H](C3)N4CC(F)(F)F)n2)n[nH]1 [Example 5-33] showed an IC50 [1, 3] of 31.6 to 200 nM.

In the case of Cc1cc(Nc2cc3nc(CN4CCN(C)CC4)ccc3c(N[C@@H]3C[C@H]4CC[C@@H](C3)N4CC(F)(F)F)n2)n[nH]1 [Example 5-35], the IC50 [1, 3] is reported as less than 31.6 nM.

With COC(=O)c1cnc2cc(Nc3cc(C)[nH]n3)nc(N[C@@H]3C[C@H]4CC[C@@H](C3)N4CCCF)c2c1 [Example 6-44] the “THP-1 IL4 pIC50” value [1, 4] was “B (B represents a pEC50 value between 6.7 and 7.5 (EC50 between 200 nM and 32 nM))”.

For Cc1cc(Nc2cc3ncc(S(C)(=O)=O)cc3c(N[C@@H]3C[C@H]4CC[C@@H](C3)N4CCCF)n2)n[nH]1 [Example 6-55], the “THP-1 IL4 pIC50” value [1, 4] was “C (C represents a pEC50 value<6.7 (EC50>200 nM))”.

With Cc1cc(Nc2cc3ncc(S(C)(=O)=O)cc3c(N[C@@H]3C[C@H]4CC[C@@H](C3)N4[C@@H]3CCOC3=O)n2)n[nH]1 [Example 6-57] the “THP-1 IL4 pIC50” value [1, 4] was “C (C represents a pEC50 value<6.7 (EC50>200 nM))”.

For Cc1cc(Nc2cc3ncc(S(C)(=O)=O)cc3c(N[C@@H]3C[C@H]4CC[C@@H](C3)N4[C@H]3CCOC3=O)n2)n[nH]1 [Example 6-58], the “THP-1 IL4 pIC50” value [1, 4] was “C (C represents a pEC50 value<6.7 (EC50>200 nM))”.

COc1ccnc2cc(Nc3cc(C)[nH]n3)nc(N[C@@H]3C[C@H]4CC[C@@H](C3)N4C(=O)CN(C)C)c12 [Example 7-3] was tested, and the “THP-1 IL4 pIC50” value [1, 4] was “C (C represents a pEC50 value<6.7 (EC50>200 nM))”.

COc1ccnc2cc(Nc3cc(C)[nH]n3)nc(N[C@@H]3C[C@H]4CC[C@@H](C3)N4CCF)c12 [Example 7-7] was tested, and the “THP-1 IL4 pIC50” value [1, 4] was “B (B represents a pEC50 value between 6.7 and 7.5 (EC50 between 200 nM and 32 nM))”.
